According to patent US5480990A, “Bicyclopolyazamacrocyclocarboxylic acid complexes for use as contrast agents” (The Dow Chemical Company, priority 1993, dated 1996):

Assays:
[1] = Biodistribution: % injected dose in several tissues of Sprague Dawley rats, 30 min after tail vein injection; type: in vivo; details: rat
Description: Sprague Dawley rats were allowed to acclimate for five days then injected with 100 μL of the complex solution via a tail vein. The rats weighed between 150 and 200 g at the time of injection. After 30 min. the rats were killed by cervical dislocation and dissected. The amount of radioactivity in each tissue was determined by counting in a NaI scintillation counter coupled to a multichannel analyzer. The counts were compared to the counts in 100 μL standards in order to determine the percentage of the dose in each tissue or organ.
The percent dose in blood was estimated assuming blood to be 7% of the body weight. The percent dose in bone was estimated by multipuling the percent dose in the femur by 25. The percent dose in muscle was estimated assuming muscle to be 43% of the body weight.
In addition to organ biodistribution, chelates of the compounds of Formula (I) were evaluated for efficiency of bone localization since phosphonates are known for their ability to bind to hydroxyapatite.
The percent of the injected dose of complex of Example 1 (^159 Gd-PCTA) in several tissues are given in Table I. The numbers represent the average of 5 rats? per data point.

[2] = Imaging experiments (MRI) in rat, kidney enhancement; type: in vivo, Sprague Dawley rat; details: intramuscular, 0.05-0.1 mmol Gd/kg body weight
Description: Injectable solutions were first prepared (0.5M) by dissolving the appropriate amount of each complex in 2 mL of deionized water. The pH of the solutions were then adjusted to 7.4 using 1M HCl or NaOH as needed. The total Gd content of each solution was then determined by ICP analysis.
An anethized Sprague Dawley rat was injected intramuscularly with one of the metal solutions described above at a dose of 0.05-0.1 mmol Gd/kg body weight. Images were then taken at various time intervals and compared with a non-injected control at time 0.

[3] = Percent metal as a complex (Sephadex column, 159Gd tracer); type: physicochemical
Description: A stock ^159 GdCl3 solution was prepared by adding 2 μL of 3×10^-4 M ^159 GdCl3 in 0.1N HCl to 2 mL of a 3×10^-4 M GdCl3 carrier solution. Appropriate ligand solutions were then prepared in deionized water. The 1:1 ligand/metal complexes were then prepared by combining the ligands (dissolved in 100-500 μL of deionized water) with 2 mL of the stock 159GDCl3 solution, followed by through mixing to give an acidic solution (pH=2). The pH of the solution was then raised to 7.0 using 0.1N NaOH. The percent metal as a complex was then determined by passing a sample of the complex solution through a Sephadex™ G-50 column, eluting with 4:1 saline ([…]) and collecting 2×3 mL fractions. The amount of radioactivity in the combined elutions was then compared with that left on the resin (non-complexed metal is retained on the resin). […]
A solution of the ligand of Example D was prepared by dissolving 3.8 mg of ligand/0.517 mL of deionized water (pH=2). […] After thorough mixing, the percent metal as a complex was determined by passing a sample of the complex solution through a Sephadex™ column, eluting with 4:1 saline (0.85% NaCl/NH4 OH), and collecting 2×3 mL fractions. The amount of radioactivity in the combined elutions was then compared with that left on the resin. […] By this method complexation was determined to be 92%. […] The pH stability was then determined using the General Procedure above.

[4] = commercial contrast agent, background; cited from earlier work

SMILES	% injected dose in blood, average ([1]; blood (assumed 7% of body weight), 100 μL tail vein, average of 5 rats) [% INJECTED DOSE]	% injected dose in bone, average ([1]; bone (femur x 25), 100 μL tail vein, average of 5 rats) [% INJECTED DOSE]	% injected dose in kidney, average ([1]; kidney, 100 μL tail vein, average of 5 rats) [% INJECTED DOSE]	% injected dose in liver, average ([1]; liver, 100 μL tail vein, average of 5 rats) [% INJECTED DOSE]	% injected dose in muscle, average ([1]; muscle (assumed 43% of body weight), 100 μL tail vein, average of 5 rats) [% INJECTED DOSE]	bone to blood ratio (% dose/g) ([1]; ratio of % dose/g)	bone to liver ratio ([1]; ratio of % dose/g)	bone to muscle ratio ([1]; ratio of % dose/g)	% injected dose in spleen, average ([1]; spleen, 100 μL tail vein, average of 5 rats) [% INJECTED DOSE]	uptake by the renal system [2]	enhancement of the kidney image ([2]; vs non-injected control at time 0)	complexation after passing through the resin ([3]; 1:1 ligand to metal ratio, after passing through the resin)	complexation (percent metal as a complex) ([3]; 1:1 ligand/metal, before passing through the resin) [%]	distribution [4]	elimination [4]
O=C([O-])CN1CCN(CC(=O)[O-])Cc2cccc(n2)CN(CC(=O)[O-])CC1.[159Gd+3] [Gd-PCTA, ^159 Gd-3,6,9,15-tetraazabicyclo[9.3.1]pentadeca-1(15),11,13-triene-3,6,9-trimethylenecarboxylic acid]	5.10	7.38	1.81	0.78	7.76	7	3.5	4.8	0.05	rapidly taken up by the renal system	brilliant enhancement of the kidney cortex as well as peripheral kidney tissue	greater than 98%	92		
CNC[C@H](O)[C@@H](O)[C@H](O)[C@H](O)CO.CNC[C@H](O)[C@@H](O)[C@H](O)[C@H](O)CO.O=C([O-])CN(CCN(CC(=O)[O-])CC(=O)O)CCN(CC(=O)[O-])CC(=O)O.[Gd+3] [Magnevist, complex of gadolinium with diethylenetriaminepentaacetic acid]														freely distributes in extracellular fluid	efficient elimination through the renal system
